Key:
[1] = target: T1, long form of human GPR120 (Homo sapiens, UniProt Q5NUL3); assay: Human GPR120 DiscoveRx PathHunter Beta-Arrestin assay, Procedure β-arrestin A; format: cell-based; conditions: PathHunter CHO-K1 GPR120 β-Arrestin cell line, 3000 cells per well, read-out: hGPR120 β-arrestin A EC50
T1 construct: host or cells: PathHunter CHO-K1 GPR120 β-Arrestin Cell Line
Excerpt: The binding of an agonist (medium/long chain fatty acids or small molecule agonists) to the G-protein-coupled receptor GPR120 activates phospholipase C, leading to release of intracellular Ca^+2 through the generation of inositol 1,4,5-trisphosphate (InsP3 or IP3). GPR120 activation can also trigger intracellular signaling via recruitment of Beta-Arrestin. In the present method, agonist-induced activation of the human GPR120 receptor is monitored through the use of PathHunter CHO-K1 GPR120 Beta-Arrestin Cell Line engineered by DiscoveRx, as detailed below. The cell lines are designed to co-express both the ProLink/Enzyme Donor (PK)-tagged GPCR and the Enzyme […] (EA)-tagged Beta-Arrestin fusion proteins. Upon GPR120 receptor stimulation/activation, the EA-tagged Beta-Arrestin portion is translocated to the tagged receptor, where the two enzyme fragments are brought within close proximity. Under these conditions, these fragments can interact and form an active Beta-gal enzyme complex through Enzyme Fragment Complementation (EFC). This active Beta-gal complex can enzymatically hydrolyse the substrate to produce a detectable light signal; therefore, activation as a function of agonist concentration can be expressed as an EC50 value to determine relative compound activities. This in vitro assay therefore serves to assess compound agonist activity of the GPR120. Procedure β-Arrestin A: In Procedure β-arrestin A, the cell used were PathHunter CHO-K1 GPR120 β-Arrestin Cell Line, expressing the long form of human GPR120 (Genbank accession number NM 181745), with 3000 cells per well. Procedure β-Arrestin B: In Procedure 3-arrestin B the cells used were PathHunter CHO-K1 GPR120S β-Arrestin Cell Line, expressing the short form of the GPR120 receptor (Accession #NM_181745), with 5000 cells/well. Assay Procedure:
The selected CHO-K1 GPR120 β-Arrestin cells were cultured in Ham's F12 media supplemented with 10% fetal bovine serum (FBS), 1% Glutamine, lx p/s, 800 μg/mL G418 and 300 μg/mL Hygromycin B (for selection). Cell stocks were maintained and grown in a sub-confluent state using standard cell culture procedures. The day before the experiment, the cells were harvested with non-enzymatic cell dissociation buffer and re-suspended in complete growth media at the desired concentration. A Corning 384-plate was then seeded with the proper number of cells in a volume of 25 μL, per well. The seeded plates were incubated overnight at 37° C.
On the day of the experiment, the Assay Buffer containing (a) HBSS with Ca^++ and Mg^++, (b) 20 mM HEPES, and (c) 0.1% BSA stabilizer (pH 7.4) was prepared. The growth medium was gently removed from the cell plates and 20 μL of Assay Buffer added to each well. The plate was then incubated at 37° C. for 60 min. Test compounds were serially diluted in Assay Buffer to desired concentrations (more particularly to one or more of the following μM concentrations: 25, 12.5, 6.25, 3.125, 1.5625, 0.78125, 0.390625, 0.1953125, 0.09765625, 0.048828125, 0.024414063, 0.012207031). Five μL of compound dilution was then added to each well and the plate incubated at 37° C. for 90 min. The detection reagents were prepared according to the manufacture's instruction. Twelve μL of the detection reagents were added to each well and the plate incubated at room temperature for 60 min.
The plates were read on an EnVision instrument, using Protocol name: Luminescence, Plate type: 384 Costar, Measurement height: 3 mm, Measurement time: 1 s, Aperture: 384 Plate aperture. The % activity relative to the positive control was calculated using the following equation:
The % Activity values were plotted versus the concentration of test compound and fitted to a sigmoidal dose-response curve with a Hill slope=1 (fixed value) using nonlinear regression with GraphPad Prism 5.0 to calculate the EC50 values. […]

Human GPR120 short form = target: T2, Human GPR120 short form (Homo sapiens, UniProt Q5NUL3); assay: Human GPR120 calcium flux assay (FLIPR), Procedure Calcium A; format: cell-based; conditions: HEK-293 cells expressing human GPR120 short form, 2500 cells/well; read-out: GPR120 Ca2+ Assay A EC50
T2 construct: expressed in transfected cells
T2 sequence (Q5NUL3 1-361): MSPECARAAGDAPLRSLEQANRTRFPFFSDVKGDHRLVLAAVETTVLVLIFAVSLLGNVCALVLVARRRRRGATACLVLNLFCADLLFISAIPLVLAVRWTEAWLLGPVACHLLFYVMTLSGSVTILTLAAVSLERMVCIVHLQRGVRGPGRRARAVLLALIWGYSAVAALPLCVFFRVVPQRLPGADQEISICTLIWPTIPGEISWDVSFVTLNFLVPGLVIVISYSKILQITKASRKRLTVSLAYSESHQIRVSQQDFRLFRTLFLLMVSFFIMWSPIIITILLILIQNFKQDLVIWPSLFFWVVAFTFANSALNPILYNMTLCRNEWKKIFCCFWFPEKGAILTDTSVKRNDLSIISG
Excerpt: This in vitro assay serves to assess test compound agonist activity against the short splice variant (SVS with Accession number NM_001195755.1 confirmed by sequencing data) of the GPR120 receptor. The Human Short splice variant #2 (NM_001195755.1) is missing an in-frame coding exon compared to variant 1 (the Human Long splice variant NM_181745.3), resulting in a shorter isoform (GPR120-S) lacking a 16 aa protein segment compared to isoform GPR120-L. The assay platform utilizes HEK-293 cells stably transfected to express the Human GPR120 short form. These cells are first loaded with the Ca^+2 sensitive dye, Fluo-4 NW. Upon stimulation, intracellular released Ca^+2 can bind to the dye and alter its fluorescence intensity. This increase in fluorescence signal, and thus the flux in intracellular [Ca^2+], is detected and quantitated by fluorescence imaging using a FLIPR reader. The effect of the agonist is measured as a function of concentration and used to calculate an EC50 based upon a response curve.
In this procedure 2500 cells/well were employed.
A Human GPR120 clone (Genbank accession number NM_001195755.1) was placed into the pcDNA3.1 mammalian expression vector carrying the neomycin resistance gene. A stable mammalian cell was generated by placing the above clone into a HEK293 background. Clonal cells responding to long chain fatty acids had expression levels of GPR120 confirmed by RT-qPCR. Human HEK-GPR120 cells were cultured in Dulbecco's Modified Eagle's Medium (DMEM)/F12 medium supplemented with 10% fetal bovine serum (FBS), 1% L-Glutamine and 1% penicillin/streptomycin and 0.5 mg/ml G-418. Cells were split 2 times a week to keep the cells in the log-phase growth.
In preparation for the assay, HEK cells stably transfected with Human GPR120 (2.5K cells per well in 25 uL growth medium) were seeded into 384-well plates and then incubated overnight (37° C., 5% CO2). The next day, the media was changed to 20 μL assay buffer and the cell starved for 1 h at 37° C. The dye loading solution (2× dye) was prepared using 10 mL assay buffer, 100 μL of 250 mM probenecid, 1 bottle of Component A, and 20 μl of dye in DMSO. Twenty μL of the 2× dye loading buffer was then added to each well. The plates were incubated at 37° C. for 30 min, then at room temperature for an additional 15 minutes, before performing the assay on FLIPR. Test compounds were prepared in assay buffer (2 uL of cpd+198 uL assay buffer, final DMSO in assay plate is 0.2%) at the desired concentration, more particularly at 100, 50, 25, 12.5, 6.25, 3.125, 1.562, 0.781, 0.391, 0.195, 0.098, 0.049, 0.024 and 0.012 μM.
The assay was performed on a FLIPR plate reader using the following parameters. Baseline was read for 10 seconds at 1 sec intervals. The program was set to transfer 10 μL of ligand from compound plate to cell plate after baseline reading. Aspiration was executed at: 10 μL/sec speed, 4.6 μL height; Dispensing was executed at: 30 μL/sec speed, 45 μL height. After compound addition, each well was read for 300 sec, with measurements collected at 1 sec intervals.
The kinetic data from the FLIPR was based upon a 5 minute window for data collection. The fluorescence of each sample well was used for individual calculations of a normalized RFU value, which was defined as maximum response minus the minimum response. The normalized fluorescence reading (RFU) was calculated as follows: RFU=Fmax−Fmin The data were fitted to a sigmoidal dose-response curve with a variable Hill slope (<2) using nonlinear regression with GraphPad Prism 5.0 to calculate the EC50 values. The Fitting Equation was: Y=Bottom+(Top−Bottom)/(1+10^((Log EC50−X)*HillSlope)), where X is the log of the concentration and Y is the response.

T1 sequence (Q5NUL3 1-377 isoform Q5NUL3-1): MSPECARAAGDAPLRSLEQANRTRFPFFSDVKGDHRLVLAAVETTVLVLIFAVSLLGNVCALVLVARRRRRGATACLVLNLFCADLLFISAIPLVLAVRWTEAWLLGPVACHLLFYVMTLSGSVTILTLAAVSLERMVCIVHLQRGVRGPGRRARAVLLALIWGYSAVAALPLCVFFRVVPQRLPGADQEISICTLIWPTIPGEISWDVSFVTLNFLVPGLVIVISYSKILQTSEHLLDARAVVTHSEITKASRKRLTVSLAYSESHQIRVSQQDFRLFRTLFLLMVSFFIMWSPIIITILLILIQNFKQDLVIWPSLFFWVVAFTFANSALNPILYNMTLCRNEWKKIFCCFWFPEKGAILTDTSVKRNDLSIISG
T1 sequence (P32121 whole entry partner): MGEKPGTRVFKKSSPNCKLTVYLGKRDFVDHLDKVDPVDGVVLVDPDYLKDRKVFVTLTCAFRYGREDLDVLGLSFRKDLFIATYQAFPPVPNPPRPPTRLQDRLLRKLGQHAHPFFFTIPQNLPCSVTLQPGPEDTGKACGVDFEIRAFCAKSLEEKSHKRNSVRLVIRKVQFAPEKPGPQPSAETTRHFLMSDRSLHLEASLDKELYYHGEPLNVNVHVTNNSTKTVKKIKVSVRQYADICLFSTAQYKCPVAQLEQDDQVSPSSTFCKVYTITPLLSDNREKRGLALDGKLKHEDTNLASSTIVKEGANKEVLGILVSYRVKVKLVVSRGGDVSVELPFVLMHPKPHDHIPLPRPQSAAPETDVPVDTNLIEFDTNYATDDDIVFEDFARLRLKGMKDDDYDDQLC

| Molecule | EC50 [1] [nM] | EC50 (Human GPR120 short form) [nM] |
| --- | --- | --- |
| 3-(4-((4-(4-ethylphenyl)thiophen-3-yl)methoxy)-3,5-difluorophenyl)propanoic acid [Cpd 53] | 210 | 690 |
| 3-(4-[[2-(4-chlorophenyl)-5-methyl-4-(trifluoromethyl)thiophen-3-yl]methoxy]-3,5-difluorophenyl)propanoic acid [Cpd 40] | 650 | 129 |
| CCc1ccc(-c2ccsc2COc2ccc(CCCO)c(F)c2F)cc1 [Cpd 4, 3-(4-[[3-(4-ethylphenyl)thiophen-2-yl]methoxy]-2,3-difluorophenyl)propan-1-ol] | 261 | 59 |
| CCc1ccc(-c2cc(Cl)sc2COc2c(F)cc(CCC(=O)O)cc2F)cc1 [Cpd 8, 3-(4-((5-chloro-3-(4-ethylphenyl)thiophen-2-yl)methoxy)-3,5-difluorophenyl)propanoic acid] | 167 | 114 |
| CCc1ccc(-c2cc(Cl)sc2COc2ccc(CCC(=O)O)c(F)c2F)cc1 [Cpd 11, 3-(4-[[5-chloro-3-(4-ethylphenyl)thiophen-2-yl]methoxy]-2,3-difluorophenyl)propanoic acid] | 222 | 126 |
| CCc1ccc(-c2cc(C)sc2COc2ccc(CCC(=O)O)c(C)c2C)cc1 [Cpd 13, 3-(4-((3-(4-ethylphenyl)-5-methylthiophen-2-yl)methoxy)-2,3-dimethylphenyl)propanoic acid] | 498 | 163 |
| OCCCc1ccc(OCc2sc(Cl)cc2-c2ccc(Cl)cc2)c(F)c1F [Cpd 29, 3-(4-[[5-chloro-3-(4-chlorophenyl)thiophen-2-yl]methoxy]-2,3-difluorophenyl)propan-1-ol] | 243 |  |
| Cc1ccc(-c2snc(Cl)c2COc2c(F)cc(CCC(=O)O)cc2F)c(F)c1 [Cpd 77, 3-(4-[[3-chloro-5-(2-fluoro-4-methylphenyl)-1,2-thiazol-4-yl]methoxy]-3,5-difluorophenyl)propanoic acid] | 191 |  |
| CCc1ccc(-c2nsc(C(F)(F)F)c2COc2c(C)cc(CCC(=O)O)cc2C)cc1 [Cpd 239, 3-(4-((3-(4-ethylphenyl)-5-(trifluoromethyl)isothiazol-4-yl)methoxy)-3,5-dimethylphenyl)propanoic acid] | 203 |  |
| Cc1c(/C=C/C(=O)O)ccc(OCc2c(-c3ccc(Cl)cc3)nsc2C(F)(F)F)c1C [Cpd 244, (E)-3-(4-((3-(4-chlorophenyl)-5-(trifluoromethyl)isothiazol-4-yl)methoxy)-2,3-dimethylphenyl)acrylic acid] |  | > 5000 |

Next, values leading:

| EC50 [1] [nM] | EC50 (Human GPR120 short form) [nM] | Molecule |
| --- | --- | --- |
| 116 | 200 | 3-(4-((3-chloro-5-(4-ethylphenyl)isothiazol-4-yl)methoxy)-2,3,5-trifluorophenyl)propan-1-ol [Cpd 140] |
| 191 | 61 | CCc1ccc(-c2cc(Cl)sc2COc2ccc(CCC(=O)O)c(C)c2C)cc1 [Cpd 5, 3-(4-[[5-chloro-3-(4-ethylphenyl)thiophen-2-yl]methoxy]-2,3-dimethylphenyl)propanoic acid] |
| 203 | 117 | CCc1ccc(-c2cc(Cl)sc2COc2c(F)cc(CCCO)cc2F)cc1 [Cpd 9, 3-(4-[[5-chloro-3-(4-ethylphenyl)thiophen-2-yl]methoxy]-3,5-difluorophenyl)propan-1-ol] |
| 125 | 135 | CCc1ccc(-c2cc(F)sc2COc2ccc(CCC(=O)O)c(F)c2F)cc1 [Cpd 12, 3-(4-[[3-(4-ethylphenyl)-5-fluorothiophen-2-yl]methoxy]-2,3-difluorophenyl)propanoic acid] |
| 186 |  | O=C(O)CCc1ccc(OCc2sc(Cl)cc2-c2ccc(Cl)cc2)c(F)c1F [Cpd 28, 3-(4-[[5-chloro-3-(4-chlorophenyl)thiophen-2-yl]methoxy]-2,3-difluorophenyl)propanoic acid] |
| 145 |  | COc1ccc(-c2nsc(C(F)(F)F)c2COc2c(F)cc(CCCO)cc2F)cc1 [Cpd 234, 3-(3,5-difluoro-4-[[3-(4-methoxyphenyl)-5-(trifluoromethyl)-1,2-thiazol-4-yl]methoxy]phenyl)propan-1-ol] |
| 302 |  | Cc1cc(CCC(=O)O)ccc1OCc1c(-c2ccc(Cl)cc2)nsc1C(F)(F)F [Cpd 235, 3-(4-[[3-(4-chlorophenyl)-5-(trifluoromethyl)-1,2-thiazol-4-yl]methoxy]-3-methylphenyl)propanoic acid] |

Reference: patent publication US9067898B1, “Isothiazole derivatives as GPR120 agonists for the treatment of type II diabetes” (Janssen Pharmaceutica NV, priority 2014, dated 2015)
